Source: US7432089B2, “DNA encoding favin-adenine-dinucleotide-dependent-D-erythronate-4-phosphate-de-hydrogenase, pdxR, and microbial production of vitamin B6” (DSM IP Assets B.V., priority 2002, dated 2008)

Columns and labels:
PdxR = test: Substrate specificity of PdxR (DCIP reduction, A600); format: biochemical, S. meliloti
Description: Substrate specificity of PdxR was examined using the finally purified enzyme solution prepared in Example 2[C] (1). The standard enzyme assay was performed as follows: the basal reaction mixture (total volume 150 μl) consisting of 33 mM potassium phosphate buffer (pH 7.0), 2.4 μg proteins, 0.091 mM DCIP, and water up to a total volume of 144 μl, and was incubated for 1 minute at room temperature (21° C.). […]. The decrease in A600 was monitored at 21° C. for 1 minute for EN4P dehydrogenase read with a UV-VIS recording spectrophotometer UV 2200. One unit of the enzyme activity was defined as the amount of enzyme reduced 1 nmol of DCIP for 1 minute under the action of EN4P dehydrogenase in the assay system described above.

S. meliloti 16C18 = test: Growth of vitamin B6-deficient mutant on supplemented EMM plate; format: cell-based, Sinorhizobium meliloti
Description: These colonies were streaked on LBMC plates containing same antibiotics and incubated for 2 days at 30° C. The cells grown on the plates were inoculated on vitamin B6 assay plates (Table 1) containing Saccharomyces carlsbergensis ATCC 9080 as a vitamin B6 indicator strain. After incubation for 2 days at 30° C., one colony that had no halo of Saccharomyces carlsbergensis ATCC 9080 was obtained. The strain was named as S. meliloti 16C18. […] Further, S. meliloti 16C18 grew on EMM plate which was supplemented with 4 mg/L of 4-HT or 400 μg/L of PN.

[1] = test system: purified PdxR treated with ammonium sulfate; test: Effect of flavin on discoloration of DCIP in reaction mixture; format: biochemical, S. meliloti
Description: To characterize a flavin binding to PdxR protein, ammonium sulfate fractionation was applied in the finally purified enzyme solution prepared in Example 2[C] (1) according to a method of Cammack [Biochem. J. 109:45-46 (1968)]. The enzyme solution (1 ml, containing 4.74 mg proteins) was dialyzed overnight against 1 liter of 80% (w/v) ammonium sulfate solution and its resultant precipitate in a dialysis membrane was collected by centrifugation at 34,800×g for 30 min, dissolved in 0.5 ml of 10 mM Tris-HCl, pH 7.5, and dialyzed overnight against 4 liters of the same buffer. The volume of dialyzed enzyme solution was brought to 1 ml with 10 mM Tris-HCl, pH 7.5.
The degree of discoloration was judged at 3 minutes.

EN4P dehydrogenase = test: Cytochrome c as electron acceptor of EN4P dehydrogenase (absorption spectra 400-600 nm); format: biochemical, S. meliloti; settings: 80 μM oxidized cytochrome c, 2.3 mM EN4P, CFE, 21° C., 2-20 min
Description: Furthermore, possibility of cytochrome c instead of DCIP or ferricyanide in above-mentioned enzyme reaction system of EN4P dehydrogenase with an electron acceptor was examined by measuring change of absorption spectra in 400-600 nm spectral regions due to formation of reduced form from oxidized form of cytochrome c at room temperature (21° C.). Reaction mixture (150 μl) contained 33 mM potassium phosphate buffer, pH 7.0, 2.3 mM EN4P, 80 μM oxidized form of cytochrome c (from equine heart, Sigma Chemical Co.) as an electron acceptor, and CPE (0.16 mg protein). Absorption spectra of the reaction mixture of zero time and after 2, 5, 10, 15 and 20 min at room temperature (21° C.) were monitored with a UV-VIS recording spectrophotometer UV 2200. The absorption spectrum of zero time had only a broad peak at 525 nm, but spectra after 2 min appeared a new peak at 550 nm corresponding to reduced form of cytochrome c, and the absorption in the 550 nm region after 5, 10, 15 and 20 min was increased with time course.

CFE of S. meliloti 16C18 = test: EN4P dehydrogenase activity with an electron acceptor in cell-free extract (color change); format: biochemical; settings: 21° C.
Description: (§1) The frozen cells were thawed slowly, suspended with 200 ml of 10 mM Tris-HCl buffer, pH 7.5. The suspension was passed through a French pressure cell at 800 kg/cm^2. The homogenate was centrifuged to remove the cell debris at 37,000×g for 90 minutes and then each 165 ml of supernatants was used as cell-free extract (CFE) and the protein contents in S. meliloti 16C18 and S. meliloti 16C18/pVK-pdxR were 5,030 and 5,042 mg, respectively.
(§2) EN4P dehydrogenase activity with NAD^+ or NADP^+ in CFE was determined by the formation of NADH or NADPH, which absorbs at 340 nm. Reaction mixture (150 μl) for assaying EN4P dehydrogenase activity contained 33 mM potassium phosphate buffer, pH 7.0, 2.3 mM EN4P, 1 mM NAD^+ or NADP^+, and CFE prepared from cells of S. meliloti 16C18 or S. meliloti 16C18/pVK-pdxR (each 0.16 mg protein). The increase of A340 was monitored at room temperature (21° C.) for 1 min in a UV-VIS recording spectrophotometer UV 2200 (Shimadzu Instruments, Inc., Kyoto, Japan), but the increase of A340 was not observed in enzyme reaction mixtures with any CFEs. Therefore, the both CFEs were determined to have no NAD^+ or NADP^+ dependent EN4P dehydrogenase activity. EN4P dehydrogenase activity with an electron acceptor in CFE was examined at room temperature (21° C.) by color change due to formation of reduced form from oxidized form of an electron acceptor. Reaction mixture (150 μl) contained 33 mM potassium phosphate buffer, pH 7.0, 2.3 mM EN4P, CFE (0.16 mg protein), and an electron acceptor such as 2,6-dichlorophenolindophenol (0.091 mM) (Wako Pure chemical Industries, Ltd., Osaka, Japan) (referred to as DCIP hereinafter) or ferricyanide (1.3 mM) (Wako Pure chemical Industries, Ltd., Osaka, Japan). […]

[2] = test system: pdxR gene product in CFE of S. meliloti 16C18/pVK-pdxR; test: as above; format: biochemical; settings: 21° C.
Description: as §1, §2

[3] = test system: EN4P dehydrogenase in CFE of S. meliloti 16C18 or S. meliloti 16C18/pVK-pdxR; test: EN4P dehydrogenase activity with NAD+ or NADP+ in CFE (increase of A340); format: biochemical; settings: 1 mM coenzyme, 2.3 mM EN4P, any CFE, 21° C., 1 min
Description: as §2

[4] = substrate 2.28 mM, 0.091 mM DCIP, pH 7.0, 21° C.

EN4P dehydrogenase, sequence (as listed by the source): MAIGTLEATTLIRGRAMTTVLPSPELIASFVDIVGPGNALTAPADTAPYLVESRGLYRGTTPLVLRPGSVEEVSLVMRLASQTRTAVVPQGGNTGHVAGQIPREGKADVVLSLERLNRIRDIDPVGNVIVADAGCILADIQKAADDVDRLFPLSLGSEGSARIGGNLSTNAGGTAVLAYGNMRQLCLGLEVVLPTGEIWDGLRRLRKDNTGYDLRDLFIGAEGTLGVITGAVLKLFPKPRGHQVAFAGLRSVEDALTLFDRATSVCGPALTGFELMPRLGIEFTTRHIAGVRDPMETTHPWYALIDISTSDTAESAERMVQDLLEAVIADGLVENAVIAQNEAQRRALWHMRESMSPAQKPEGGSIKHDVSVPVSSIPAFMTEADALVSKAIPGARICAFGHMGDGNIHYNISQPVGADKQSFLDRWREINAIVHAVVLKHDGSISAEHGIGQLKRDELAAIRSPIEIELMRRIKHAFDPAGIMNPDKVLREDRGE

In the case of `O=C(O)CC(C(=O)O)C(O)C(=O)O` [D,L-isocitrate], the “Activity (nmol/min/mg protein)” value (PdxR; [4]) is reported as 0 nmol/min/mg protein.

For `N[C@H](C(=O)O)[C@H](O)CO` [4-HT, 4-hydroxy-L-threonine], the “Growth of S. meliloti 16C18 on supplemented EMM plate” value (S. meliloti 16C18; EMM plate supplemented with 4 mg/L of 4-HT) was “grew”.

`O=C(O)[C@H](O)[C@H](O)COP(=O)(O)O` [EN4P, D-erythronate 4-phosphate] was tested, and the “Oxidation by PdxR” value (PdxR; substrate 2.28 mM, 0.091 mM DCIP) was “oxidized” and the “Activity (nmol/min/mg protein)” value (PdxR; [4]) was 946 nmol/min/mg protein.

For `C[C@H](O)C(=O)O` [L-(+)-lactic acid], the “Activity (nmol/min/mg protein)” value (PdxR; [4]) was 0 nmol/min/mg protein.

In the case of `O=C(O)CO` [glycolate], the “Activity (nmol/min/mg protein)” value (PdxR; [4]) is reported as 0 nmol/min/mg protein.

In the case of `Cc1cc2nc3c(=O)[nH]c(=O)nc-3n(C[C@H](O)[C@H](O)[C@H](O)COP(=O)(O)O)c2cc1C` [FMN, flavin mononucleotide], the “Discoloration of DCIP” value ([1]; any FMN concentrations) is reported as “did not occur”.

With cytochrome c the “Function as electron acceptor (reduced form peak at 550 nm)” value (EN4P dehydrogenase) was “works as electron acceptor”.

`O=C(O)[C@H](O)[C@H](O)CO` [D-erythronate] was tested, and the “Activity (nmol/min/mg protein)” value (PdxR; pH 7) was 0 nmol/min/mg protein.

With `O=C1C=CC(=Nc2cc(Cl)c(O)c(Cl)c2)C=C1` [DCIP, 2,6-dichlorophenolindophenol] the “Color change of electron acceptor in reaction mixture” value (“Color change of electron acceptor” for short) (CFE of S. meliloti 16C18; CFE of S. meliloti 16C18, + EN4P (2.3 mM)) was “No change”, the “Color change of electron acceptor” value (CFE of S. meliloti 16C18; CFE of S. meliloti 16C18, − EN4P) was “No change” and the “Color change of electron acceptor” value [2] was “No change”.

For `NC(=O)c1ccc[n+]([C@@H]2O[C@H](COP(=O)([O-])OP(=O)(O)OC[C@H]3O[C@@H](n4cnc5c(N)ncnc54)[C@H](O)[C@@H]3O)[C@@H](O)[C@H]2O)c1` [NAD^+], the “Increase of A340 (formation of NADH or NADPH)” value [3] was “not observed”.

With `O=CC(=O)O` [glyoxylate] the “Activity (nmol/min/mg protein)” value (PdxR; [4]) was 0 nmol/min/mg protein.

With `NC(=O)c1ccc[n+]([C@@H]2O[C@H](COP(=O)([O-])OP(=O)(O)OC[C@H]3O[C@@H](n4cnc5c(N)ncnc54)[C@H](OP(=O)(O)O)[C@@H]3O)[C@@H](O)[C@H]2O)c1` [NADP^+] the “Increase of A340 (formation of NADH or NADPH)” value [3] was “not observed”.

In the case of `Cc1ncc(CO)c(CO)c1O` [PN, pyridoxol], the “Growth of S. meliloti 16C18 on supplemented EMM plate” value (S. meliloti 16C18; EMM plate supplemented with 400 μg/L of PN) is reported as “grew”.

`O=C(O)[C@H](O)CO` [D(+) glyceric acid] was tested, and the “Activity (nmol/min/mg protein)” value (PdxR; [4]) was 0 nmol/min/mg protein.

In the case of `O=C(O)[C@H](O)COP(=O)(O)O` [D-(−)-glyceric acid 3-phosphate], the “Activity (nmol/min/mg protein)” value (PdxR; [4]) is reported as 0 nmol/min/mg protein.

`Cc1cc2nc3c(=O)[nH]c(=O)nc-3n(C[C@H](O)[C@H](O)[C@H](O)COP(=O)(O)OP(=O)(O)OC[C@H]3O[C@@H](n4cnc5c(N)ncnc54)[C@H](O)[C@@H]3O)c2cc1C` [FAD, flavin adenine dinucleotide] was tested, and the “Flavin concentration at which discoloration of DCIP occurred” value ([1]; judged at 3 minutes, 21° C.) was “greater than 0.014 μM”.

For `O=C(O)COP(=O)(O)O` [glycolic acid 2-phosphate], the “Activity (nmol/min/mg protein)” value (PdxR; [4]) was 0 nmol/min/mg protein.

`CC(O)C(=O)O` (racemic) [D,L-lactate] was tested, and the “Activity (nmol/min/mg protein)” value (PdxR; pH 7) was 0 nmol/min/mg protein.

`O=C(O)C[C@H](O)C(=O)O` [L-malic acid] was tested, and the “Activity (nmol/min/mg protein)” value (PdxR; [4]) was 0 nmol/min/mg protein.
